System: Cynomolgus monkeys
Assay: Bilirubin Monkey Test
Format: in vivo
Description: The product of Example 4 was formulated in 5% DMSO: 2% Tween 80: 10% SBE-CD with 1 molar equiv of HCl at 6 mg/ml and dosed at 30 mg/kg. Cynomolgus monkeys (each group n=6) had baseline blood drawn at day 0 at 9 am. On day 1, the monkeys were fed their morning meal at 7 am. After 1 hour, all left over food was removed and fast was begun. There was twice a day oral dosing of compound or vehicle on day 1 and day 2 of the fast, on day 3 there was an oral dose the morning (8 am) before the blood draw (9 am). Food was returned to the monkeys at this point. Oral dosing occurred at approximately 8:00 a.m. and 4:00 p.m. administered by oral gavage. Serum chemistries were screened on baseline and end of treatment blood draws. Significant changes were detected in bilirubin levels. Bilirubin increased in the fasted state, as expected (total, direct, and indirect bilirubin changed 2.0-, 2.4- and 1.92-fold, respectively over baseline).

[1] = fasted cynomolgus monkeys, 30 mg/kg oral gavage twice a day, end of treatment (day 3) vs baseline
[2] = serum, 48 hr fast, 30 mg/kg oral twice a day, n=6

## O=C(O)c1ccc2nc(NC(c3ccccc3)c3ccccc3)n(CCc3ccccc3)c2c1.O=S(=O)(O)O [Example 4, 2-[(diphenylmethyl)amino]-1-(2-phenylethyl)-1H-benzimidazole-6-carboxylic acid sulfate]
[1]
  direct bilirubin change over baseline: 4.71 fold
  indirect bilirubin change over baseline: 3.53 fold
  total bilirubin change over baseline: 3.74 fold
[2]
  DBIL (direct bilirubin): 0.165 ± 0.01 mg/dL
  IBIL (indirect bilirubin): 0.565 ± .036 mg/dL
  TBIL (total bilirubin): 0.73 ± 0.04 mg/dL
